11 compounds from PubChem BioAssay (NCI) can be followed below.

Test systems include A549 NSCLC; HCT-116 colon; HOP-92 NSCLC; KM12 colon; OVCAR-4 ovarian; OVCAR-5 ovarian; SK-MEL-5 melanoma; SNB-19 CNS; UACC-257 melanoma; UO-31 renal.
Test in all cases: NCI tumour cell line growth inhibition, 48 h

“And” between values parts separate entries of the source, which are not always exact repeats. Equal values may be shown once.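 Method: 48-hour compound exposure of cells in 96-well plates, five concentrations, linear interpolation of endpoints. GI50 is the concentration that inhibits growth by half. The concentration for full growth arrest is given as TGI.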 Where only a bound is given, the exact number is not on record here.

Regarding `Cc1cnc(C(=O)Nc2nc3ccc(S(=O)(=O)Nc4ccc(C5(C(F)(F)F)CC5)cc4)cc3[nH]2)cn1`, the GI50 in the assay with A549 NSCLC was 0.57 µM; in the assay on HCT-116 colon it was 0.452 µM; in the assay with HOP-92 NSCLC, 0.387 µM; in the assay on KM12 colon it was 0.309 µM; in the assay with OVCAR-4 ovarian, 2.07 µM; with OVCAR-5 ovarian, 0.785 µM. In addition, the GI50 in the assay with SK-MEL-5 melanoma is 0.232 µM; with SNB-19 CNS, 0.553 µM; with UACC-257 melanoma, 5.13 µM; with UO-31 renal, 0.481 µM. The TGI in the assay with A549 NSCLC was found to be 9.66 µM; in the assay with HCT-116 colon, 10.5 µM; in the assay with HOP-92 NSCLC, 6.46 µM; in the assay with KM12 colon, 13 µM; in the assay with OVCAR-4 ovarian, 9.26 µM; in the assay with OVCAR-5 ovarian, 10.9 µM. Besides, the TGI with SK-MEL-5 melanoma stood at 3.85 µM; in the assay with SNB-19 CNS, 13.3 µM; with UACC-257 melanoma, 29.9 µM; with UO-31 renal, 6.2 µM.
As for `Cc1ncc(C(=O)Nc2ccc(CN3CCN(C)CC3)c(C(F)(F)F)c2)cc1C#Cc1cnc(N)cc1C#N`, the GI50 in the assay with A549 NSCLC is 1.26 µM; with HCT-116 colon, 0.182 µM; with HOP-92 NSCLC, 0.0911 µM; with KM12 colon it was 0.00758 µM; in the assay with OVCAR-4 ovarian it was 0.144 µM; in the assay with OVCAR-5 ovarian it was 1.66 µM. Further, the GI50 was 0.711 µM in the assay with SK-MEL-5 melanoma, 2.37 µM with SNB-19 CNS, 0.288 µM in the assay on UACC-257 melanoma and 0.307 µM with UO-31 renal. The TGI with A549 NSCLC turned out to be 3.93 µM; with HCT-116 colon it was 2.92 µM; in the assay on HOP-92 NSCLC, 1.38 µM; in the assay on KM12 colon it was 1.98 µM; in the assay on OVCAR-4 ovarian, 2.64 µM; with OVCAR-5 ovarian, 4 µM. In addition, the TGI with SK-MEL-5 melanoma is 2.76 µM; in the assay on SNB-19 CNS, 4.67 µM; in the assay on UACC-257 melanoma, 3.12 µM; in the assay on UO-31 renal it was 1.33 µM.
`CC12CCC(Br)C(C)(C)C1CC=C1C(=O)OCC1O2` (stereo not drawn): the TGI in the assay with A549 NSCLC is over 57.9 µM; in the assay with HCT-116 colon it was over 44.5 µM; in the assay with HOP-92 NSCLC, 34.1 µM; in the assay on KM12 colon, 32.3 µM; in the assay on OVCAR-4 ovarian it was 42.3 µM; in the assay with OVCAR-5 ovarian, over 53.3 µM. The TGI is over 100 µM in the assay on SK-MEL-5 melanoma, over 50.4 µM with SNB-19 CNS, 27 µM in the assay with UACC-257 melanoma and over 42.6 µM with UO-31 renal.
With `O=C(NC12CC3CC(CC(C3)C1)C2)C(=O)c1c[nH]c2ccccc12`, the TGI turned out to be 30.2 µM in the assay with A549 NSCLC; 30.5 µM in the assay on HCT-116 colon; 28.8 µM in the assay on HOP-92 NSCLC; 28.5 µM in the assay with KM12 colon; 31.4 µM with OVCAR-4 ovarian; 32.1 µM in the assay on OVCAR-5 ovarian. Further, the TGI came to 30.4 µM in the assay with SK-MEL-5 melanoma, 32.3 µM in the assay on SNB-19 CNS, 25.9 µM in the assay on UACC-257 melanoma and 36.6 µM with UO-31 renal.
On to `COc1ccc2c(c1)C(=O)c1c-2n(CCCI)c(=O)c2cc([N+](=O)[O-])ccc12`, for which the GI50 was 0.316 µM and 0.402 µM with A549 NSCLC; 0.0721 µM and 0.0453 µM with HCT-116 colon; 0.0738 µM and 0.715 µM with HOP-92 NSCLC; 0.939 µM and 1.77 µM with KM12 colon; 1.03 µM and 3.72 µM with OVCAR-4 ovarian; 0.109 µM and 0.124 µM with SK-MEL-5 melanoma. The GI50 in the assay with SNB-19 CNS was 0.313 µM and 0.131 µM; in the assay on UACC-257 melanoma, 0.914 µM and 4.13 µM; with UO-31 renal, 0.36 µM and 0.0716 µM. The TGI in the assay on A549 NSCLC was 50 µM and 40.9 µM; in the assay with HCT-116 colon it was 1.02 µM and 1.94 µM; in the assay with KM12 colon, 50 µM and 46.6 µM; in the assay with OVCAR-4 ovarian it was 11.9 µM and 84.3 µM; in the assay with OVCAR-5 ovarian it was 7.75 µM and 46.3 µM; in the assay on SK-MEL-5 melanoma, 0.438 µM and 0.468 µM. Also, the TGI was 36.9 µM and > 100 µM in the assay on SNB-19 CNS; 17.4 µM and 37.9 µM in the assay with UACC-257 melanoma; 13.1 µM and 10.4 µM in the assay with UO-31 renal.
On to `CC(=O)OCc1cc2ccccc2nc1C(Br)(Br)Br`, for which the TGI is 31.2 µM in the assay on A549 NSCLC; 31.6 µM in the assay with HCT-116 colon; 31.2 µM in the assay on HOP-92 NSCLC; 27.6 µM in the assay on KM12 colon; 30.5 µM in the assay on OVCAR-4 ovarian; 30.7 µM with OVCAR-5 ovarian. Further, the TGI came out at 23.9 µM in the assay with SK-MEL-5 melanoma, 46.2 µM with SNB-19 CNS, 27 µM in the assay on UACC-257 melanoma and 29.5 µM in the assay on UO-31 renal.
On to `O=C1C(Cl)=C(NCc2ccco2)C(=O)c2ccccc21`, for which the GI50 was 7.61 µM in the assay on A549 NSCLC; 7.09 µM with HCT-116 colon; 23.2 µM in the assay on HOP-92 NSCLC; 8.67 µM in the assay with KM12 colon; 6.91 µM with OVCAR-4 ovarian; 33.8 µM in the assay with OVCAR-5 ovarian. The GI50 was 1.62 µM in the assay on SK-MEL-5 melanoma, 24.3 µM in the assay on SNB-19 CNS, 7.81 µM with UACC-257 melanoma and 38.5 µM in the assay on UO-31 renal. The TGI in the assay on A549 NSCLC is 31.1 µM; with HCT-116 colon, 49.5 µM; in the assay with HOP-92 NSCLC, 62.2 µM; with KM12 colon, over 100 µM; in the assay on OVCAR-4 ovarian, 19.2 µM; in the assay with OVCAR-5 ovarian, over 65.1 µM. Besides, the TGI with SK-MEL-5 melanoma is 3.11 µM; with SNB-19 CNS, over 100 µM; in the assay on UACC-257 melanoma it was 40 µM; in the assay on UO-31 renal, over 100 µM.
`O=Cc1c(O)c(C(=O)Nc2ccc3[nH]c(=O)[nH]c3c2)cc2ccccc12`: the TGI with A549 NSCLC, with HCT-116 colon, with HOP-92 NSCLC, in the assay with KM12 colon, in the assay with OVCAR-4 ovarian and in the assay on OVCAR-5 ovarian was over 100 µM each time. Besides, the TGI with SK-MEL-5 melanoma, with SNB-19 CNS, in the assay on UACC-257 melanoma and with UO-31 renal was over 100 µM each time.
Regarding `O=c1cccccc1[O-].O=c1cccccc1[O-].O=c1cccccc1[O-].[La+3]`, the TGI in the assay with A549 NSCLC is over 100 µM; with HCT-116 colon it was 31.2 µM; in the assay on HOP-92 NSCLC it was over 100 µM; with KM12 colon it was over 100 µM; in the assay on OVCAR-4 ovarian, over 100 µM; in the assay on OVCAR-5 ovarian, over 100 µM. Also, the TGI in the assay on SK-MEL-5 melanoma was found to be 22.4 µM; in the assay with SNB-19 CNS, 84.1 µM; with UACC-257 melanoma it was 47.9 µM; in the assay with UO-31 renal, 65.8 µM.
Turning to `COC(=O)c1c2cccccc-2c(Cc2c3cccccc-3c(C(=O)OC)c2O)c1O`, the TGI in the assay with A549 NSCLC, in the assay with HCT-116 colon, in the assay on HOP-92 NSCLC, in the assay with KM12 colon, with OVCAR-4 ovarian and in the assay with OVCAR-5 ovarian was over 100 µM throughout. Also, the TGI in the assay on SK-MEL-5 melanoma, in the assay with SNB-19 CNS, in the assay with UACC-257 melanoma and in the assay with UO-31 renal was over 100 µM each time.
As to `CC(C)OP(=O)(NC(=S)c1ccccc1)OC(C)C`, the TGI with A549 NSCLC, with HCT-116 colon, with HOP-92 NSCLC, in the assay with KM12 colon, in the assay with OVCAR-4 ovarian and in the assay on OVCAR-5 ovarian was over 100 µM throughout. The TGI in the assay on SK-MEL-5 melanoma, with SNB-19 CNS, with UACC-257 melanoma and with UO-31 renal was over 100 µM in each case.
